# Test results taken from US5348980A, “Enantiomers derived from (S)-2-amino-2-(3,4-dichlorobenzyl)-1-propanol, their use and method of preparation” (Institute de Recherche Jouveinal, priority 1992, dated 1994).
# Counter-ions that a name gives are not always drawn.
# Experiments:
# [1] = system: bronchoconstriction caused by 100 μmol/kg of histamine; assay: Histamine-induced bronchoconstriction test (Konzett and Rossler), i.v. administration; type: in vivo, guinea pigs; details: for ED50: Cavia porcellus, iv
# Source text: (§1) Furthermore, the antihistaminic properties were studied in guinea pigs by the bronchoconstriction test performed according to the method of H. Konzett and R. Rossler (Arch. Exp. Path. Pharmak.--Naunym Schmiedeberg - 195, 71-74, 1940).
# (§2) The products of the invention were studied in this test after administration in solution or in suspension via the intravenous and intraduodenal routes, and also in powder form via the intranasal route.
# (§3) Irrespective of the administration route, the preparation of the animals employed in the test consists in first anesthetizing male guinea pigs weighing 350 to 400 g by intraperitoneal (i.p.) injection of a sterile and isotonic solution containing 25% (w/v.) of ethyl carbamate on the basis of 6.0 ml/kg, and in then fitting the animals with a tracheal cannula to permit measurement of the pulmonary pressure, a cannula in the right jugular vein for the intravenous (i.v.) administration of solution, and also a cannula in the left carotid artery for qualitative observation of the blood pressure.
# (§4) The animals are then connected to a pump (Harvard, ref. 50-1718) in order to maintain an artificial ventilation at a frequency of 60 insufflations per minute; the intratracheal pressure is recorded by an assembly comprising a transducer, an amplifier and a recorder (Gould, respective refs.: PLOEZ, 13-4615-50 and 8188-G4400-06).
# (§5) Fitted in this way, the animals are left undisturbed for 10 minutes before the beginning of the actual experiment, which is carried out in different ways according to the administration route envisaged.
# In base form, the test products are dissolved in an isotonic solution (0.9% NaCl) containing 10% (v/v) of Transcutol (R). Dilutions are performed by adding isotonic solution. In salt, in particular hydrochloride, form, the solutions are prepared in the isotonic solution.
# The treatment of the animals consists of a series of administrations of histamine dihydrochloride solution on the basis of 100 μmol/kg before and after treatment with the solution of test product, which is carried out according to the following time schedule:
# t=-20 minutes - histamine (100 μmol/kg)
# t=-10 minutes - ditto control
# t=0 - injection of the test product
# t=+10 minutes - histamine (100 μmol/kg)
# (§6) - Calculation and expression of the results:
# (§7) For each administration route and for each time of administration of histamine, the activity of the products is expressed as the percentage change in amplitude of bronchoconstriction, calculated relative to that produced by the "control" administration of histamine which precedes the administration of the test product. The % change is calculated according to the formula: [formula] in which: Bc(tx) represents the amplitude of the bronchoconstriction in mm at time x,
# (§8) Bo(tx) the amplitude of the base-line respiration in mm at time x,
# (§9) Bc(to) and Bo(to) the corresponding amplitudes in mm on receipt of the "control" administration of histamine which precedes that of the test product.
# (§10) The inhibitory activity of the test products on histamine-induced bronchoconstriction is expressed at different times of the studies as their ED50, which is the effective dose of product, expressed in μmol/kg, capable of inhibiting 50% of the histamine-induced bronchoconstriction at the time in question.
# (§11) Failing this expression, the results are expressed as a % change at the time in question and for a given concentration of the test product. Under these conditions, a positive percentage corresponds to a potentiating effect on bronchoconstriction and, conversely, a negative percentage to an inhibitory effect.
# (§12) Statistical analyses of the results were carried out by the Student t test. A value of p<0.05 is considered significant.
# (§13) The compounds of the invention described in Examples 1 and 2 were employed in these tests. In addition, as a comparative product for the eutomer of Example 1, the racemic (R,S) compound corresponding to it, and which is described and prepared in Example 7 of U.S. Pat. No. 4,994,617, was employed. […]
# [2] = system: bronchoconstriction caused by 100 μmol/kg of histamine; assay: Histamine-induced bronchoconstriction test (Konzett and Rossler), intraduodenal (i.d.) administration; type: in vivo, guinea pigs; details: for ED50: Cavia porcellus; for ED50, inhibition of histamine-induced bronchoconstriction, t = 20': 20 min
# Source text: as §1, §2, §3, §4, §5
# In base form, the test products are suspended in a solution containing 1% w/v of carboxymethylcellulose (CMC), and, in salt form, they are dissolved in an isotonic solution before being administered via a cannula whose end is placed in the animal's duodenum.
# The time schedule for the successive administrations of histamine via the i.v. route and that for the test solution via the i.d. route are identical to that described above in a).
# as §6, §7, §8, §9, §10, §11, §12, §13
# [3] = system: bronchoconstriction caused by ovalbumin in the sensitized animal; assay: Inhibition of ovalbumin-induced anaphylactic bronchoconstriction in sensitized guinea pigs, oral; type: in vivo; details: Cavia porcellus, 1 h, intratracheal pressure after 60 minutes, read-out: ED50 inhibiting 50% of ovalbumin-induced bronchoconstriction
# Experimental: The technique performed consists in previously sensitizing guinea pigs weighing 250 to 300 g by two intraperitoneal injections, separated by an interval of 24 hours, of 0.5 ml of a sterile suspension of physiological saline (0.9% NaCl) containing 20 μg of ovalbumin (Grade V; Sigma) and 100 mg of aluminum hydroxide Al(OH)3. At the same time, unsensitized control animals are treated with two injections of suspension not containing ovalbumin. The actual experiment is performed after a period needed for the sensitization of the animals, which is between 14 and 21 days. It is generally arrived at after 18 days, and consists in first administering increasing quantities of the test product in solution in water orally to groups of 5 animals, on the basis of 0.5 to 1.0 ml per animal, corresponding to doses of 1 to 10 μmol/kg of product. The animals are then anesthetized 50 minutes after this administration by an intraperitoneal injection of a solution of urethane. […] After 60 minutes, the intratracheal pressure measured in mm of Hg is determined for each animal of the test groups and those of the control group. These measurements enable the extent of the inhibition of bronchoconstriction produced by the test product to be determined. […]
# [4] = 10 min, t = 10', read-out: ED50, inhibition of histamine-induced bronchoconstriction, t = 10'
# [5] = 0.5 h, t = 30', read-out: ED50, inhibition of histamine-induced bronchoconstriction, t = 30'
# [6] = 40 min, t = 40', read-out: ED50, inhibition of histamine-induced bronchoconstriction, t = 40'
# [7] = 50 min, t = 50', read-out: ED50, inhibition of histamine-induced bronchoconstriction, t = 50'
# [8] = 1 h, t = 60', read-out: ED50, inhibition of histamine-induced bronchoconstriction, t = 60'
smiles,measurement,setting,value
"C=CCN(C)[C@](C)(CO)Cc1ccc(Cl)c(Cl)c1 [Example 2, base, (S)-(+)-N-allyl-2-methylamino-2-(3,4-dichlorobenzyl)-1-propanol]",ED50,[1]; [4],1.27 µmol/kg
same,ED50,"[1]; 20 min, t = 20', read-out: ED50, inhibition of histamine-induced bronchoconstriction, t = 20'",0.93 µmol/kg
same,ED50,[1]; [5],0.74 µmol/kg
same,ED50,[1]; [6],0.96 µmol/kg
same,ED50,[1]; [7],1.01 µmol/kg
same,ED50,[1]; [8],0.76 µmol/kg
same,ED50,[2]; [5],0.59 µmol/kg
same,ED50,[2]; [6],0.65 µmol/kg
same,ED50,[2]; [7],0.63 µmol/kg
same,ED50,[2]; [8],0.62 µmol/kg
same,"ED50, inhibition of histamine-induced bronchoconstriction, t = 20'",[2],1.45 µmol/kg
"C=CCN(C)[C@](C)(CO)Cc1ccc(Cl)c(Cl)c1 [Example 2, hydrochloride, (S)-(+)-N-allyl-2-methylamino-2-(3,4-dichlorobenzyl)-1-propanol]","ED50, inhibition of histamine-induced bronchoconstriction, t = 10'","[1]; t = 10', 10 min",1.68 μmol/kg
same,"ED50, inhibition of histamine-induced bronchoconstriction, t = 20'","[1]; t = 20', 20 min",0.70 µmol/kg
same,"ED50, inhibition of histamine-induced bronchoconstriction, t = 30'","[1]; t = 30', 30 min",0.58 µmol/kg
same,"ED50, inhibition of histamine-induced bronchoconstriction, t = 40'","[1]; t = 40', 40 min",0.57 µmol/kg
same,"ED50, inhibition of histamine-induced bronchoconstriction, t = 50'","[1]; t = 50', 50 min",0.51 µmol/kg
same,"ED50, inhibition of histamine-induced bronchoconstriction, t = 60'","[1]; t = 60', 60 min",0.53 µmol/kg
same,ED50,[3],1.84 µmol/kg
same,ED50,[2]; [4],1.59 µmol/kg
same,"ED50, inhibition of histamine-induced bronchoconstriction, t = 20'",[2],0.42 µmol/kg
same,"ED50, inhibition of histamine-induced bronchoconstriction, t = 30'","[2]; t = 30', 30 min",0.33 µmol/kg
same,"ED50, inhibition of histamine-induced bronchoconstriction, t = 40'","[2]; t = 40', 40 min",0.48 µmol/kg
same,"ED50, inhibition of histamine-induced bronchoconstriction, t = 50'","[2]; t = 50', 50 min",0.51 µmol/kg
same,"ED50, inhibition of histamine-induced bronchoconstriction, t = 60'","[2]; t = 60', 60 min",0.56 µmol/kg
